This is an account of results in PMC12751012, “Nanoscale Direct-to-Biology Optimization and Structural Insights into Selective S. aureus TrmD Inhibitors” (Journal of Medicinal Chemistry, 2025).

The target of the assay is T1, S. aureus TrmD (Staphylococcus aureus, UniProt Q2FZ43).
T1 construct: made in house; host or cells: E. coli BL21
T1 sequence (Q2FZ43 1-245): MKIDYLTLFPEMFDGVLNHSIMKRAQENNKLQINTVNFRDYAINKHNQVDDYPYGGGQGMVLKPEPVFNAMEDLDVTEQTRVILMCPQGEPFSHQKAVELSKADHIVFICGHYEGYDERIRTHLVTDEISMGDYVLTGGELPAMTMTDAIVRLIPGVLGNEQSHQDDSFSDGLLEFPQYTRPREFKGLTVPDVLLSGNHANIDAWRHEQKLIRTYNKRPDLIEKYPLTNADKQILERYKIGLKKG
The assay is described as follows: nanoSAR direct-to-biology FP displacement screening of crude triazoles. The assay is classed as binding. The note with it: crude triazole at 1 μM, assuming full conversion, 500 nM TrmD, 10 nM tracer 4; for inhibition at 1 µM: read-out: % displaced tracer. An outline of the steps:
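S. aureus TrmD (500 nM) with tracer 4 (10 nM) in Tris/NaCl/MgCl2/glycerol buffer, pH 7.5, was challenged with unpurified triazoles from in situ CuAAC of alkyne 7 with a 320-member azide library.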

As for `Cn1nncc1-n1cc(-c2c[nH]c3nc[nH]c(=O)c23)nn1` [Compound 04B02, O=C1NC=NC=2NC=C(C=3N=NN(C=4N(N=NC4)C)C3)C12], the inhibition at 1 µM amounted to 63%.

Take `O=c1[nH]cnc2[nH]cc(-c3cn(-c4cccc5ccncc45)nn3)c12` [Compound 03F04, O=C1NC=NC=2NC=C(C=3N=NN(c4c5c(ccnc5)ccc4)C3)C12]: the inhibition at 1 µM is 22%.

For the molecule `CN1CC[C@@H](n2cc(-c3c[nH]c4nc[nH]c(=O)c34)nn2)C1=O` [Compound 03E02, O=C1NC=NC=2NC=C(C=3N=NN(C3)[C@H]4C(=O)N(CC4)C)C12], the inhibition at 1 µM amounted to 27%.

On to `O=c1[nH]cnc2[nH]cc(-c3cn([C@H]4CCCNC4)nn3)c12` [Compound 01B01, O=C1NC=NC=2NC=C(C=3N=NN(C3)[C@@H]4C[NH2+]CCC4)C12], for which the inhibition at 1 µM was determined as 29%.

On to `O=C1CC[C@@H](N2Cc3cc(-n4cc(-c5c[nH]c6nc[nH]c(=O)c56)nn4)ccc3C2=O)C(=O)N1` [Compound 01H08, O=C1N([C@H]2C(=O)NC(=O)CC2)Cc3c1ccc(N4N=NC(C=5C=6C(=O)NC=NC6NC5)=C4)c3], for which the inhibition at 1 µM was 23%.

On to `C[C@@H](CN)n1cc(-c2c[nH]c3nc[nH]c(=O)c23)nn1` [Compound 03C02, O=C1NC=NC=2NC=C(C=3N=NN(C3)[C@H](C[NH3+])C)C12], for which the inhibition at 1 µM came to 40%.

`NS(=O)(=O)c1ccc(-n2cc(-c3c[nH]c4nc[nH]c(=O)c34)nn2)cc1` [Compound 02B06, S(=O)(=O)(N)c1ccc(N2N=NC(C=3C=4C(=O)NC=NC4NC3)=C2)cc1]: the inhibition at 1 µM was 17%.

With `O=c1[nH]cnc2[nH]cc(-c3cn(C[C@H](O)Cc4ccccc4)nn3)c12` [Compound 03D03, O=C1NC=NC=2NC=C(C=3N=NN(C3)C[C@H](O)Cc4ccccc4)C12], the inhibition at 1 µM was 39%.

In the case of `N#Cc1cnn(CCn2cc(-c3c[nH]c4nc[nH]c(=O)c34)nn2)c1` [Compound 02G10, O=C1NC=NC=2NC=C(C=3N=NN(C3)CCN4N=CC(C#N)=C4)C12], the inhibition at 1 µM is 38%.

For `COC(=O)c1cnoc1Cn1cc(-c2c[nH]c3nc[nH]c(=O)c23)nn1` [Compound 01D12, O=C(OC)C1=C(ON=C1)CN2N=NC(C=3C=4C(=O)NC=NC4NC3)=C2], the inhibition at 1 µM is 38%.

On to `C[C@H](c1ccccc1Cl)n1cc(-c2c[nH]c3nc[nH]c(=O)c23)nn1` [Compound 02H09, Clc1c(cccc1)[C@H](N2N=NC(C=3C=4C(=O)NC=NC4NC3)=C2)C], for which the inhibition at 1 µM was found to be 44%.

Take `O=c1[nH]cnc2[nH]cc(-c3cn(C4CCOCC4)nn3)c12` [Compound 02B04, O=C1NC=NC=2NC=C(C=3N=NN(C3)C4CCOCC4)C12]: the inhibition at 1 µM turned out to be 10%.

With `C[C@H](N)Cn1cc(-c2c[nH]c3nc[nH]c(=O)c23)nn1` [Compound 03F01, O=C1NC=NC=2NC=C(C=3N=NN(C3)C[C@@H]([NH3+])C)C12], the “% displaced tracer” value is given as 56%.

Take `Cc1cc(F)cc(-n2cc(-c3c[nH]c4nc[nH]c(=O)c34)nn2)c1` [Compound 03C04, Fc1cc(N2N=NC(C=3C=4C(=O)NC=NC4NC3)=C2)cc(c1)C]: the inhibition at 1 µM was found to be 17%.

For `CCNC(=O)Cn1cc(-c2c[nH]c3nc[nH]c(=O)c23)nn1` [Compound 01E09, O=C1NC=NC=2NC=C(C=3N=NN(C3)CC(=O)NCC)C12], the inhibition at 1 µM was found to be 33%.

For the molecule `O=c1[nH]cnc2[nH]cc(-c3cn(Cc4cnn(-c5ccccc5)c4)nn3)c12` [Compound 01A02, O=C1NC=NC=2NC=C(C=3N=NN(C3)CC=4C=NN(c5ccccc5)C4)C12], the inhibition at 1 µM stood at 81%.

For the molecule `O=c1[nH]cnc2[nH]cc(-c3cn(CCCOC4CCC4)nn3)c12` [Compound 01C08, O=C1NC=NC=2NC=C(C=3N=NN(C3)CCCOC4CCC4)C12], the inhibition at 1 µM amounted to 27%.

For the molecule `O=c1[nH]cnc2[nH]cc(-c3cn(Cc4ccc(F)cc4F)nn3)c12` [Compound 02H03, Fc1c(ccc(F)c1)CN2N=NC(C=3C=4C(=O)NC=NC4NC3)=C2], the inhibition at 1 µM was 49%.

For the molecule `Cc1ccc2c(c1)[C@H](n1cc(-c3c[nH]c4nc[nH]c(=O)c34)nn1)CCC2` [Compound 01B04, O=C1NC=NC=2NC=C(C=3N=NN(C3)[C@H]4c5c(ccc(c5)C)CCC4)C12], the inhibition at 1 µM amounted to 27%.

For the molecule `COCc1cccc(-n2cc(-c3c[nH]c4nc[nH]c(=O)c34)nn2)c1` [Compound 01C07, O=C1NC=NC=2NC=C(C=3N=NN(c4cc(ccc4)COC)C3)C12], the inhibition at 1 µM turned out to be 17%.

Take `CC(C)CN1CCO[C@H](Cn2cc(-c3c[nH]c4nc[nH]c(=O)c34)nn2)C1` [Compound 01G03, O=C1NC=NC=2NC=C(C=3N=NN(C3)C[C@H]4OCC[N@H+](C4)CC(C)C)C12]: the inhibition at 1 µM was 46%.

In the case of `COC(=O)c1coc(Cn2cc(-c3c[nH]c4nc[nH]c(=O)c34)nn2)n1` [Compound 03C08, O=C(OC)C=1N=C(OC1)CN2N=NC(C=3C=4C(=O)NC=NC4NC3)=C2], the inhibition at 1 µM came out at 40%.

For the molecule `O=C1NCCN1CCn1cc(-c2c[nH]c3nc[nH]c(=O)c23)nn1` [Compound 04G03, O=C1N(CCN2N=NC(C=3C=4C(=O)NC=NC4NC3)=C2)CCN1], the inhibition at 1 µM worked out at 15%.

As for `CCC1(Cn2cc(-c3c[nH]c4nc[nH]c(=O)c34)nn2)COC1` [Compound 03F08, O=C1NC=NC=2NC=C(C=3N=NN(C3)CC4(COC4)CC)C12], the inhibition at 1 µM worked out at 76%.

On to `Cc1nc2cc(-n3cc(-c4c[nH]c5nc[nH]c(=O)c45)nn3)ccc2s1` [Compound 01H06, S1c2c(N=C1C)cc(N3N=NC(C=4C=5C(=O)NC=NC5NC4)=C3)cc2], for which the inhibition at 1 µM is 26%.

Turning to `Cc1ccccc1-n1cc(-c2c[nH]c3nc[nH]c(=O)c23)nn1` [Compound 01D08, O=C1NC=NC=2NC=C(C=3N=NN(c4c(cccc4)C)C3)C12], the inhibition at 1 µM came out at 9%.

For the molecule `CO[C@H]1COC[C@@H]1n1cc(-c2c[nH]c3nc[nH]c(=O)c23)nn1` [Compound 04D03, O=C1NC=NC=2NC=C(C=3N=NN(C3)[C@@H]4[C@@H](OC)COC4)C12], the inhibition at 1 µM was found to be 37%.

Consider `O=c1[nH]cnc2[nH]cc(-c3cn(Cc4cnc(C(F)(F)F)s4)nn3)c12` [Compound 01F06, S1C(=NC=C1CN2N=NC(C=3C=4C(=O)NC=NC4NC3)=C2)C(F)(F)F], for which the inhibition at 1 µM was found to be 72%.

As to `O=c1[nH]cnc2[nH]cc(-c3cn(-c4ccc(S(F)(F)(F)(F)F)cc4)nn3)c12` [Compound 03A04, S(F)(F)(F)(F)(F)c1ccc(N2N=NC(C=3C=4C(=O)NC=NC4NC3)=C2)cc1], the inhibition at 1 µM was found to be 16%.

Turning to `O=c1[nH]cnc2[nH]cc(-c3cn([C@H]4CCCNCC4)nn3)c12` [Compound 03A12, O=C1NC=NC=2NC=C(C=3N=NN(C3)[C@@H]4CC[NH2+]CCC4)C12], the inhibition at 1 µM came out at 18%.

`CCOc1ccc(-n2cc(-c3c[nH]c4nc[nH]c(=O)c34)nn2)cc1` [Compound 01D07, O=C1NC=NC=2NC=C(C=3N=NN(c4ccc(OCC)cc4)C3)C12]: the inhibition at 1 µM was found to be 19%.

Turning to `N#CC1(Cn2cc(-c3c[nH]c4nc[nH]c(=O)c34)nn2)CCCC1` [Compound 01F01, O=C1NC=NC=2NC=C(C=3N=NN(C3)CC4(C#N)CCCC4)C12], the inhibition at 1 µM is 74%.

Turning to `N[C@]12CC[C@](n3cc(-c4c[nH]c5nc[nH]c(=O)c45)nn3)(CC1)C2` [Compound 02D10, O=C1NC=NC=2NC=C(C=3N=NN(C3)[C@]45C[C@]([NH3+])(CC4)CC5)C12], the inhibition at 1 µM worked out at 11%.

Turning to `O=c1[nH]cnc2[nH]cc(-c3cn(Cc4ccc(-n5cccn5)cc4)nn3)c12` [Compound 02E09, O=C1NC=NC=2NC=C(C=3N=NN(C3)Cc4ccc(N5N=CC=C5)cc4)C12], the inhibition at 1 µM was 62%.

For `O=c1[nH]cnc2[nH]cc(-c3cn(-c4ccc(-c5ccccc5)cc4)nn3)c12` [Compound 02B05, O=C1NC=NC=2NC=C(C=3N=NN(c4ccc(c5ccccc5)cc4)C3)C12], the inhibition at 1 µM was found to be 3%.

In the case of `O=c1[nH]cnc2[nH]cc(-c3cn([C@@H]4CCOC4)nn3)c12` [Compound 03E01, O=C1NC=NC=2NC=C(C=3N=NN(C3)[C@H]4COCC4)C12], the inhibition at 1 µM is 27%.

Take `CN(C)c1ccc(-n2cc(-c3c[nH]c4nc[nH]c(=O)c34)nn2)cc1` [Compound 01E01, O=C1NC=NC=2NC=C(C=3N=NN(c4ccc(N(C)C)cc4)C3)C12]: the inhibition at 1 µM amounted to 33%.

Turning to `Cc1ccccc1Cn1cc(-c2c[nH]c3nc[nH]c(=O)c23)nn1` [Compound 02G09, O=C1NC=NC=2NC=C(C=3N=NN(C3)Cc4c(cccc4)C)C12], the inhibition at 1 µM came to 75%.

For `O=c1[nH]cnc2[nH]cc(-c3cn([C@H]4COCC[C@@H]4O)nn3)c12` [Compound 02C08, O=C1NC=NC=2NC=C(C=3N=NN(C3)[C@@H]4[C@@H](O)CCOC4)C12], the inhibition at 1 µM stood at 49%.

For the molecule `O=c1[nH]cnc2[nH]cc(-c3cn(S(=O)(=O)c4ccc5c(c4)CCO5)nn3)c12` [Compound 02A06, O=S(C1=CC2=C(OCC2)C=C1)(N3N=NC(C4=CNC(N=CN5)=C4C5=O)=C3)=O], the inhibition at 1 µM is -1.83%.

Take `O=c1[nH]cnc2[nH]cc(-c3cn(CCn4cccn4)nn3)c12` [Compound 01D09, O=C1NC=NC=2NC=C(C=3N=NN(C3)CCN4N=CC=C4)C12]: the inhibition at 1 µM turned out to be 39%.

With `C[C@H](c1csc2ccccc12)n1cc(-c2c[nH]c3nc[nH]c(=O)c23)nn1` [Compound 04H01, S1c2c(cccc2)C(=C1)[C@H](N3N=NC(C=4C=5C(=O)NC=NC5NC4)=C3)C], the inhibition at 1 µM came to 87%.

As for `O=c1[nH]cnc2[nH]cc(-c3cn(-c4ccnc(CO)c4)nn3)c12` [Compound 02D08, O=C1NC=NC=2NC=C(C=3N=NN(c4cc(ncc4)CO)C3)C12], the inhibition at 1 µM stood at 25%.
